Earlier results, collected in patent publication US20210186880A1, “ORAL FORMULATIONS WITH INCREASED UPTAKE” (Brown University, priority 2018, published 2021).
Where two headings read alike, the source gives them in different places. One block for each substance: values may come before it.

How the values were obtained:
GLP-1 receptor [1] = target: T1, GLP-1 receptor (Homo sapiens, UniProt P43220)
GLP-1 receptor [2] = target: T1, GLP-1 receptor; remark: listed apart in the source
[3] = oral
[4] = in vivo

T1 sequence (P43220 24-463, species assumed): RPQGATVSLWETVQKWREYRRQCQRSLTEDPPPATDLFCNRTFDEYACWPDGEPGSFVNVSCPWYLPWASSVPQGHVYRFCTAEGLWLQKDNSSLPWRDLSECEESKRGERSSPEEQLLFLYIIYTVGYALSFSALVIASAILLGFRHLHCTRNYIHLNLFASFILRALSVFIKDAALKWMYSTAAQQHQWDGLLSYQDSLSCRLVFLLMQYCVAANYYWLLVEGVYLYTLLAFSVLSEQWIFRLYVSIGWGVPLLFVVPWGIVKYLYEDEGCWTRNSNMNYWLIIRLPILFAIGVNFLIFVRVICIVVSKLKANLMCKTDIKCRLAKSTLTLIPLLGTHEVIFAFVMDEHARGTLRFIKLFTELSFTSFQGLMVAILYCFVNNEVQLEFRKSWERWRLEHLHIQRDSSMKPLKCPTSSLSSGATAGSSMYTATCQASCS

- binding affinity compared to the intact peptide, lower (GLP-1 receptor [1]): 100 fold
- agonistic activity, decrease (GLP-1 receptor [2]): > 10000 fold
Substance: GLP-1(9-36)-NH2

Substance: Glucagon-like peptide-1 [GLP-1]
- ghrelin secretion [3]: suppressed ghrelin secretion
- insulin release [3]: potent effect on insulin release
- plasma drug concentrations ([3]; dose-escalating): rapid and dose-dependent increase in plasma drug concentrations
- bioavailabilities ([3]; doses of 0.5, 1.0, 2.0, and 4.0 mg): lower than 10%
- mean absolute bioavailability ([3]; relative to intravenous administration): 4%
- fasting and postprandial glucose values (continuous 48-hour subcutaneous infusion, ~4-8 ng·kg^−1·min^−1): lowered fasting and postprandial glucose values

Substance: rGLP-1: rGLP-1 infused at 1.25-8.5 pmol/kg/min in a cited study
- fasting serum glucose decrease (1.25 pmol/kg/min): 22.7 mg/dL
- fasting serum glucose decrease (2.5 pmol/kg/min): 37.0 mg/dL
- fasting serum glucose decrease (5.0 pmol/kg/min): 53.9 mg/dL
- fasting serum glucose decrease (8.5 pmol/kg/min): 76.2 mg/dL

Substance: semaglutide: GLP-1 analog acylated with a spacer and C-18 fatty di-acid chain
- plasma half-life [4]: long
